Assay results published in the NIST ThermoML archive (doi:10.1021/je5005752).
± gives the expanded uncertainty stated by the source.

Assay: xn = mol fraction of the nth substance listed
Settings: 101 kPa, Liquid; for viscosity: Falling or rolling sphere viscometry; for mass density: Vibrating tube method

CCCC(=O)OCC [ethyl butanoate] + CCCCCCO
Settings	mass density [kg/m3]	viscosity [mPa·s]
288.15 K, x1 = 0.0997	828.32 ± 0.27	4.176 ± 0.091
288.15 K, x1 = 0.1998	834.25 ± 0.27	2.965 ± 0.065
288.15 K, x1 = 0.3002	840.39 ± 0.27	2.214 ± 0.048
288.15 K, x1 = 0.4	846.47 ± 0.27	1.735 ± 0.038
288.15 K, x1 = 0.5	852.62 ± 0.27	1.399 ± 0.031
288.15 K, x1 = 0.5998	858.84 ± 0.27	1.17 ± 0.026
288.15 K, x1 = 0.6999	865.11 ± 0.27	0.9966 ± 0.022
288.15 K, x1 = 0.7999	871.43 ± 0.27	0.8726 ± 0.019
288.15 K, x1 = 0.8998	877.77 ± 0.27	0.7818 ± 0.017
288.15 K, x1 = 1	884.16 ± 0.27	0.7224 ± 0.016
293.15 K, x1 = 0.0997	824.57 ± 0.27	3.6 ± 0.079
293.15 K, x1 = 0.1998	830.32 ± 0.27	2.6 ± 0.057
293.15 K, x1 = 0.3002	836.29 ± 0.27	1.97 ± 0.043
293.15 K, x1 = 0.4	842.19 ± 0.27	1.563 ± 0.034
293.15 K, x1 = 0.5	848.18 ± 0.27	1.274 ± 0.028
293.15 K, x1 = 0.5998	854.23 ± 0.27	1.075 ± 0.023
293.15 K, x1 = 0.6999	860.32 ± 0.27	0.9233 ± 0.02
293.15 K, x1 = 0.7999	866.48 ± 0.27	0.8142 ± 0.018
293.15 K, x1 = 0.8998	872.65 ± 0.27	0.7339 ± 0.016
293.15 K, x1 = 1	878.9 ± 0.27	0.6808 ± 0.015
298.15 K, x1 = 0.0997	820.8 ± 0.27	3.124 ± 0.068
298.15 K, x1 = 0.1998	826.39 ± 0.27	2.295 ± 0.05
298.15 K, x1 = 0.3002	832.17 ± 0.27	1.762 ± 0.038
298.15 K, x1 = 0.4	837.9 ± 0.27	1.414 ± 0.031
298.15 K, x1 = 0.5	843.72 ± 0.27	1.166 ± 0.025
298.15 K, x1 = 0.5998	849.59 ± 0.27	0.991 ± 0.022
298.15 K, x1 = 0.6999	855.52 ± 0.27	0.857 ± 0.019
298.15 K, x1 = 0.7999	861.51 ± 0.27	0.761 ± 0.017
298.15 K, x1 = 0.8998	867.52 ± 0.27	0.6898 ± 0.015
298.15 K, x1 = 1	873.62 ± 0.27	0.643 ± 0.014
303.15 K, x1 = 0.0997	817.02 ± 0.27	2.731 ± 0.06
303.15 K, x1 = 0.1998	822.43 ± 0.27	2.038 ± 0.044
303.15 K, x1 = 0.3002	828.03 ± 0.27	1.585 ± 0.035
303.15 K, x1 = 0.4	833.6 ± 0.27	1.286 ± 0.028
303.15 K, x1 = 0.5	839.24 ± 0.27	1.069 ± 0.023
303.15 K, x1 = 0.5998	844.95 ± 0.27	0.9185 ± 0.02
303.15 K, x1 = 0.6999	850.71 ± 0.27	0.7979 ± 0.017
303.15 K, x1 = 0.7999	856.53 ± 0.27	0.7129 ± 0.016
303.15 K, x1 = 0.8998	862.38 ± 0.27	0.6492 ± 0.014
303.15 K, x1 = 1	868.33 ± 0.27	0.6072 ± 0.013
308.15 K, x1 = 0.0997	813.22 ± 0.27	2.403 ± 0.052
308.15 K, x1 = 0.1998	818.46 ± 0.27	1.819 ± 0.04
308.15 K, x1 = 0.3002	823.88 ± 0.27	1.433 ± 0.031
308.15 K, x1 = 0.4	829.27 ± 0.27	1.174 ± 0.026
308.15 K, x1 = 0.5	834.75 ± 0.27	0.9852 ± 0.022
308.15 K, x1 = 0.5998	840.28 ± 0.27	0.8501 ± 0.019
308.15 K, x1 = 0.6999	845.88 ± 0.27	0.7452 ± 0.016
308.15 K, x1 = 0.7999	851.54 ± 0.27	0.6686 ± 0.015
308.15 K, x1 = 0.8998	857.23 ± 0.27	0.6113 ± 0.013
308.15 K, x1 = 1	863.02 ± 0.27	0.5736 ± 0.013
313.15 K, x1 = 0.0997	809.4 ± 0.27	2.124 ± 0.046
313.15 K, x1 = 0.1998	814.46 ± 0.27	1.631 ± 0.036
313.15 K, x1 = 0.3002	819.7 ± 0.27	1.3 ± 0.028
313.15 K, x1 = 0.4	824.92 ± 0.27	1.076 ± 0.023
313.15 K, x1 = 0.5	830.23 ± 0.27	0.9099 ± 0.02
313.15 K, x1 = 0.5998	835.6 ± 0.27	0.7898 ± 0.017
313.15 K, x1 = 0.6999	841.02 ± 0.27	0.6964 ± 0.015
313.15 K, x1 = 0.7999	846.52 ± 0.27	0.6277 ± 0.014
313.15 K, x1 = 0.8998	852.06 ± 0.27	0.5762 ± 0.013
313.15 K, x1 = 1	857.7 ± 0.27	0.5425 ± 0.012
318.15 K, x1 = 0.0997	805.54 ± 0.27	1.887 ± 0.041
318.15 K, x1 = 0.1998	810.43 ± 0.27	1.469 ± 0.032
318.15 K, x1 = 0.3002	815.5 ± 0.27	1.184 ± 0.026
318.15 K, x1 = 0.4	820.55 ± 0.27	0.9878 ± 0.022
318.15 K, x1 = 0.5	825.69 ± 0.27	0.8422 ± 0.018
318.15 K, x1 = 0.5998	830.89 ± 0.27	0.7355 ± 0.016
318.15 K, x1 = 0.6999	836.15 ± 0.27	0.652 ± 0.014
318.15 K, x1 = 0.7999	841.48 ± 0.27	0.5903 ± 0.013
318.15 K, x1 = 0.8998	846.86 ± 0.27	0.544 ± 0.012
318.15 K, x1 = 1	852.36 ± 0.27	0.5132 ± 0.011
323.15 K, x1 = 0.0997	801.66 ± 0.27	1.7 ± 0.037
323.15 K, x1 = 0.1998	806.38 ± 0.27	1.332 ± 0.029
323.15 K, x1 = 0.3002	811.27 ± 0.27	1.089 ± 0.024
323.15 K, x1 = 0.4	816.15 ± 0.27	0.9186 ± 0.02
323.15 K, x1 = 0.5	821.13 ± 0.27	0.788 ± 0.017
323.15 K, x1 = 0.5998	826.16 ± 0.27	0.6919 ± 0.015
323.15 K, x1 = 0.6999	831.25 ± 0.27	0.6147 ± 0.013
323.15 K, x1 = 0.7999	836.43 ± 0.27	0.5594 ± 0.012
323.15 K, x1 = 0.8998	841.64 ± 0.27	0.5176 ± 0.011
323.15 K, x1 = 1	847 ± 0.27	0.487 ± 0.011
